Experimental data as given in patent US8148391B2 (Cephalon, Inc., priority 2006, dated 2012).
Where two headings read alike, the source gives them in different places. Each block holds one compound with its values, some of them ahead of it.

How the values were obtained:
[1] = biological target: T1, c-Met (cytoplasmic domain) (Homo sapiens, UniProt P08581); test: c-Met Kinase Assay (same methods as for ALK, with modifications); assay type: biochemical
T1 construct: 10 ng/mL c-Met (cytoplasmic domain, Invitrogen Corporation #PV3143); purchased Invitrogen Corporation PV3143
Method in brief: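 Europium-labeled PT66 antibody (Eu-N1) detects substrate phosphorylation on wells coated with phospholipase C-γ at 10 μg/mL. The kinase, the cytoplasmic domain of c-Met at 10 ng/mL, starts the reaction, which proceeds 15 minutes at 37° C.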

[2] = biological target: T2, baculovirus-expressed ALK (Homo sapiens, UniProt Q9UM73); test: ALK Kinase Assay (ELISA-type, time-resolved fluorescence); assay type: biochemical
T2 construct: host or cells: baculovirus expression system
Method in brief: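 Plates coated with phospholipase C-γ substrate (10 μg/mL in TBS); reaction started with 30 ng/ml ALK and run 15 min at 37° C. Phosphorylated substrate detected with Eu-N1-labeled PT66 antibody. IC50 from sigmoidal variable-slope fit of percent inhibition vs log concentration.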

[3] = c-Met kinase inhibition, 1 μM ATP (Km level), read-out: cMet Activity
[4] = ALK kinase inhibition, 1 μM ATP (Km level), read-out: ALK Activity
[5] = 1 μM ATP (Km level), read-out: cMet Activity (c-Met Kinase Inhibition, IC50)
[6] = 1 μM ATP (Km level), read-out: ALK Activity (ALK Kinase Inhibition, IC50)
[7] = c-Met kinase inhibition, 1 μM ATP, read-out: cMet Activity
[8] = ALK kinase inhibition, 1 μM ATP, read-out: ALK Activity
[9] = 1 μM ATP (Km level), 10 ng/mL c-Met, read-out: cMet Activity (c-Met kinase inhibition, IC50 class)
[10] = 1 μM ATP (Km level), 30 ng/ml ALK, 37° C., 15 minutes, read-out: ALK Activity (ALK kinase inhibition, IC50 class)

T1 sequence (P08581 956-1390 limits assumed): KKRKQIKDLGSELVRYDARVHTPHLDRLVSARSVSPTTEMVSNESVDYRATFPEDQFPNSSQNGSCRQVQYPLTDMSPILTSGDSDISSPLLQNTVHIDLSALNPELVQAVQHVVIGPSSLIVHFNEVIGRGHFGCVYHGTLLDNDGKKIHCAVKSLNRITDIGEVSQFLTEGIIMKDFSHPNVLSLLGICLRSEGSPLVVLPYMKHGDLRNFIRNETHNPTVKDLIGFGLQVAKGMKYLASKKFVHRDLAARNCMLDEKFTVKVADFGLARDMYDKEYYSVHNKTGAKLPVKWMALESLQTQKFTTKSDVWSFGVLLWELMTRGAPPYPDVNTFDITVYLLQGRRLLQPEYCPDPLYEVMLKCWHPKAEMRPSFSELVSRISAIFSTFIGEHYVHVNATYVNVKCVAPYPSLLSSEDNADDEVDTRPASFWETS
T2 sequence (Q9UM73 19-1620): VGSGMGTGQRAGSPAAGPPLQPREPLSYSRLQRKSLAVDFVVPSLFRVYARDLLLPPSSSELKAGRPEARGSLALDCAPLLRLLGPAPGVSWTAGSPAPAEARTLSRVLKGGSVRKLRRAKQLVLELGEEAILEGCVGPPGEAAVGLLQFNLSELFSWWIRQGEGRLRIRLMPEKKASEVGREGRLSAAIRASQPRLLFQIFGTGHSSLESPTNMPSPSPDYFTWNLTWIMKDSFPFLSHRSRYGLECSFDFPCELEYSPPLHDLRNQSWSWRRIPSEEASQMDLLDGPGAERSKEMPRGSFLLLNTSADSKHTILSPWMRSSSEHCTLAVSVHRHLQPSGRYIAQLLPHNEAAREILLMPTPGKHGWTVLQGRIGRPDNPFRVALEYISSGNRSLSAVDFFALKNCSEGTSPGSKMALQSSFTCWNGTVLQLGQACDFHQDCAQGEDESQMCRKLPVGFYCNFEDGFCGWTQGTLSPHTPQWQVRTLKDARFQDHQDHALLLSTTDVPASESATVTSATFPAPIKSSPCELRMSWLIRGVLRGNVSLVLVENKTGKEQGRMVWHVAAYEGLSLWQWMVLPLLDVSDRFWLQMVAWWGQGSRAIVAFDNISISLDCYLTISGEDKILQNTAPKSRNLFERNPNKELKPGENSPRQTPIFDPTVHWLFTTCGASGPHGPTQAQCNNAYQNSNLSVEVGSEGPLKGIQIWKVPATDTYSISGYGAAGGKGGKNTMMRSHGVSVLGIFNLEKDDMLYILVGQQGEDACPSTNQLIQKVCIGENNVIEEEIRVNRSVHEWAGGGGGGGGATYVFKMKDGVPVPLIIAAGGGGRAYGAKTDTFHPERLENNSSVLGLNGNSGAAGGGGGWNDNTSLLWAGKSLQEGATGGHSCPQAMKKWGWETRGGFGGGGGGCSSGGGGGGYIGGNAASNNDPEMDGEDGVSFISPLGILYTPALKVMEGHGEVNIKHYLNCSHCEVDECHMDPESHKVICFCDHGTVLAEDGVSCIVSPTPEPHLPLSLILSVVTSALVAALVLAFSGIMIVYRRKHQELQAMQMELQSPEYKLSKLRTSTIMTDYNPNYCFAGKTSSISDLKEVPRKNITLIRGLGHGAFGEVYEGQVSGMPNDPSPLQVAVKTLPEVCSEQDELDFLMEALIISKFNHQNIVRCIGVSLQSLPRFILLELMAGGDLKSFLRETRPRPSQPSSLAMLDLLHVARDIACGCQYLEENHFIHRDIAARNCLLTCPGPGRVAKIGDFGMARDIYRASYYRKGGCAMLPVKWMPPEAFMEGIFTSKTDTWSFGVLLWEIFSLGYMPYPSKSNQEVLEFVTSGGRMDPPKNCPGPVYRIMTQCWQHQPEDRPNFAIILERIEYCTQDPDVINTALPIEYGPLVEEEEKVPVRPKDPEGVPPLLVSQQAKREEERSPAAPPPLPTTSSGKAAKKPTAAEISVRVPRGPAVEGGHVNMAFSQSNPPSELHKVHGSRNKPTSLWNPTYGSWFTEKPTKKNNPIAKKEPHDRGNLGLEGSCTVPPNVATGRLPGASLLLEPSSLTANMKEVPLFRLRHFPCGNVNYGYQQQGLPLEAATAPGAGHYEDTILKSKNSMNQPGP

IC50 [1, 3]: 1000 to 10000 nM | IC50 [2, 4]: 100 to 1000 nM
Compound: COCCN1CCc2ccc(Nc3ncc(Cl)c(N[C@@H]4CCC[C@H]4NS(C)(=O)=O)n3)cc2CC1 (relative stereo) [Example 371, N-(trans-2-{5-Chloro-2-[3-(2-methoxy-ethyl)-2,3,4,5-tetrahydro-1H-benzo[d]azepin-7-ylamino]-pyrimidin-4-ylamino}-cyclopentyl)-methanesulfonamide]

IC50 [1, 5]: 1000 to 10000 nM | IC50 [2, 6]: < 100 nM
Compound: COCCN1CCc2ccc(Nc3ncc(Cl)c(Nc4ccc(N5CCOCC5)cc4S(=O)(=O)N(C)C)n3)cc2CC1 [Example 853, 2-{5-Chloro-2-[3-(2-methoxy-ethyl)-2,3,4,5-tetrahydro-1H-benzo[d]azepin-7-ylamino]-pyrimidin-4-ylamino}-N,N-dimethyl-5-morpholin-4-yl-benzenesulfonamide]

IC50 [1, 3]: < 100 nM | IC50 [2, 4]: < 100 nM
Compound: CNC(=O)c1cc(C)ccc1Nc1nc(Nc2ccc3c(c2)CCN(CCOC)CC3)ncc1Cl [Example 308, 2-{5-Chloro-2-[3-(2-methoxy-ethyl)-2,3,4,5-tetrahydro-1H-benzo[d]azepin-7-ylamino]-pyrimidin-4-ylamino}-5,N-dimethyl-benzamide]

IC50 [1, 7]: < 100 nM | IC50 [2, 8]: 100 to 1000 nM
Compound: Cc1nnc(-c2ccccc2Nc2nc(Nc3ccc4c(c3)CCOC(=O)N4C)ncc2Cl)s1 [Example 1494, 2-{5-Chloro-4-[2-(5-methyl-[1,3,4]thiadiazol-2-yl)-phenylamino]-pyrimidin-2-ylamino}-5-methyl-8,9-dihydro-5H-7-oxa-5-aza-benzocyclohepten-6-one]

IC50 [1, 3]: > 10000 nM | IC50 [2, 4]: < 100 nM
Compound: COc1cc2c(cc1Nc1ncc(Cl)c(N[C@@H]3CCCC[C@H]3NS(C)(=O)=O)n1)CCN(CCNC(C)=O)CC2 [Example 256, N-(2-{7-[5-Chloro-4-((1R,2R)-2-methanesulfonylamino-cyclohexylamino)-pyrimidin-2-ylamino]-8-methoxy-1,2,4,5-tetrahydro-benzo[d]azepin-3-yl}-ethyl)-acetamide]

IC50 [1, 5]: > 10000 nM | IC50 [2, 6]: < 100 nM
Compound: (1S,2S,3R,4R)-3-[2-(3-Carbamoylmethyl-8-methoxy-2,3,4,5-tetrahydro-1H-benzo[d]azepin-7-ylamino)-5-chloro-pyrimidin-4-ylamino]-bicyclo[2.2.1]hept-5-ene-2-carboxylic acid amide [Example 813]

IC50 [1, 5]: > 10000 nM | IC50 [2, 6]: < 100 nM
Compound: COCCNC1CCc2ccc(Nc3ncc(Cl)c(N[C@@H]4CCCC[C@H]4NS(C)(=O)=O)n3)c(OC)c2CC1 (single isomer, unassigned) [Example 693]

IC50 [1, 3]: > 10000 nM | IC50 [2, 4]: < 100 nM
Compound: COc1cc2c(cc1Nc1ncc(Cl)c(N[C@@H]3CCCC[C@H]3NS(C)(=O)=O)n1)N(C)CCN(C[C@@H](O)C(F)(F)F)C2 [Example 492, N-((1R,2R)-2-{5-Chloro-2-[7-methoxy-1-methyl-4-((R)-3,3,3-trifluoro-2-hydroxy-propyl)-2,3,4,5-tetrahydro-1H-benzo[e][1,4]diazepin-8-ylamino]-pyrimidin-4-ylamino}-cyclohexyl)-methanesulfonamide]

IC50 [1, 5]: > 10000 nM | IC50 [2, 6]: < 100 nM
Compound: COCCNC1CCCc2c(ccc(Nc3ncc(Cl)c(Nc4ccccc4S(=O)(=O)N(C)C)n3)c2OC)C1 (stereo not drawn) [Example 957, 2-{5-Chloro-2-[1-methoxy-6-(2-methoxy-ethylamino)-6,7,8,9-tetrahydro-5H-benzocyclohepten-2-ylamino]-pyrimidin-4-ylamino}-N,N-dimethyl-benzenesulfonamide]

IC50 [1, 3]: 100 to 1000 nM | IC50 [2, 4]: < 100 nM
Compound: C#CCN1CCc2ccc(Nc3ncc(Cl)c(N[C@@H]4CCCC[C@H]4NS(C)(=O)=O)n3)cc2CC1 [Example 325, N-{(1R,2R)-2-[5-Chloro-2-(3-prop-2-ynyl-2,3,4,5-tetrahydro-1H-benzo[d]azepin-7-ylamino)-pyrimidin-4-ylamino]-cyclohexyl}-methanesulfonamide]

IC50 [1, 7]: > 10000 nM | IC50 [2, 8]: 100 to 1000 nM
Compound: CCN1CCc2ccc(Nc3ncc(Cl)c(N[C@H]4CCCC[C@@H]4C(N)=O)n3)cc2CC1 [Example 1502, (1S,2S)-2-[5-Chloro-2-(3-ethyl-2,3,4,5-tetrahydro-1H-enzo[d]azepin-7-ylamino)-pyrimidin-4-ylamino]-cyclohexanecarboxylic acid amide]

IC50 [1, 9]: > 10000 nM | IC50 [2, 10]: < 100 nM
Compound: CCN1C(=O)C(N(C)C)CCc2c1ccc(Nc1ncc(Cl)c(Nc3ccccc3S(=O)(=O)N(C)C)n1)c2OC (stereo not drawn) [Example 1348, 2-[5-Chloro-2-(3-dimethylamino-1-ethyl-6-methoxy-2-oxo-2,3,4,5-tetrahydro-1H-benzo[b]azepin-7-ylamino)-pyrimidin-4-ylamino]-N,N-dimethyl-benzenesulfonamide]

IC50 [1, 5]: < 100 nM | IC50 [2, 6]: < 100 nM
Compound: CC(C)N1C(=O)CCCc2cc(Nc3ncc(Cl)c(NC4C5C=CC(C5)C4C(N)=O)n3)ccc21 (stereo not drawn) [Example 669, 3-[5-Chloro-2-(1-isopropyl-2-oxo-2,3,4,5-tetrahydro-1H-benzo[b]azepin-7-ylamino)-pyrimidin-4-ylamino]-bicyclo[2.2.1]hept-5-ene-2-carboxylic acid amide]

IC50 [1, 7]: 1000 to 10000 nM | IC50 [2, 8]: < 100 nM
Compound: CNC(=O)c1ncccc1Nc1nc(Nc2ccc3c(c2)CC(=O)N(C)CC3)ncc1Cl [Example 1820, 3-[5-Chloro-2-(3-methyl-4-oxo-2,3,4,5-tetrahydro-1H-benzo[d]azepin-7-ylamino)-pyrimidin-4-ylamino]-pyridine-2-carboxylic acid methylamide]

IC50 [1, 9]: 100 to 1000 nM | IC50 [2, 10]: < 100 nM
Compound: {2-[2-(1-Acetyl-4-oxo-1,2,3,4,5,6-hexahydro-benzo[b][1,5]diazocin-8-ylamino)-5-chloro-pyrimidin-4-ylamino]-3-methyl-phenoxy}-acetonitrile [Example 1247]

IC50 [1, 7]: 100 to 1000 nM | IC50 [2, 8]: 100 to 1000 nM
Compound: Cc1cnc(-c2sccc2Nc2nc(Nc3ccc4c(c3)CCOC(=O)N4C)ncc2Cl)o1 [Example 1790, 2-{5-Chloro-4-[2-(5-methyl-oxazol-2-yl)-thiophen-3-ylamino]-pyrimidin-2-ylamino}-5-methyl-8,9-dihydro-5H-7-oxa-5-aza-benzocyclohepten-6-one]

IC50 [1, 5]: > 10000 nM | IC50 [2, 6]: < 100 nM
Compound: N-((1R,2R)-2-{5-Chloro-2-[7-(2,2,2-trifluoro-ethylamino)-6,7,8,9-tetrahydro-5H-benzocyclohepten-2-ylamino]-pyrimidin-4-ylamino}-cyclohexyl)-methanesulfonamide [Example 676]

IC50 [1, 3]: 100 to 1000 nM | IC50 [2, 4]: < 100 nM
Compound: CNC(=O)c1ccccc1Nc1nc(Nc2ccc3c(c2)C2CC3CN(CCOC)C2)ncc1Cl (stereo not drawn) [Example 161, 2-{5-Chloro-2-[10-(2-methoxy-ethyl)-10-aza-tricyclo[6.3.1.0*2,7*]dodeca-2,4,6-trien-4-ylamino]-pyrimidin-4-ylamino}-N-methyl-benzamide]

IC50 [1, 5]: > 10000 nM | IC50 [2, 6]: < 100 nM
Compound: COc1cc2c(cc1Nc1ncc(Cl)c(Nc3ccc(N4CCN(C)CC4)c(C)c3)n1)CCN(CC(C)(F)F)CC2 [Example 779, 5-Chloro-N*2*-[3-(2,2-difluoro-propyl)-8-methoxy-2,3,4,5-tetrahydro-1H-benzo[d]azepin-7-yl]-N*4*-[3-methyl-4-(4-methyl-piperazin-1-yl)-phenyl]-pyrimidine-2,4-diamine]

IC50 [1, 7]: 100 to 1000 nM | IC50 [2, 8]: 1000 to 10000 nM
Compound: CNC(=O)c1c(Cl)sc(Cl)c1Nc1nc(Nc2ccc3c(c2)CCOC(=O)N3C)ncc1Cl [Example 1774, 2,5-Dichloro-4-[5-chloro-2-(5-methyl-6-oxo-5,6,8,9-tetrahydro-7-oxa-5-aza-benzocyclohepten-2-ylamino)-pyrimidin-4-ylamino]-thiophene-3-carboxylic acid methylamide]

IC50 [1, 7]: 1000 to 10000 nM | IC50 [2, 8]: < 100 nM
Compound: CNC(=O)c1ccccc1Nc1nc(Nc2cc3c(cc2OC)CCOC(=O)N3C)ncc1Br [Example 1512, 2-[5-Bromo-2-(2-methoxy-5-methyl-6-oxo-5,6,8,9-tetrahydro-7-oxa-5-aza-benzocyclohepten-3-ylamino)-pyrimidin-4-ylamino]-N-methyl-benzamide]

IC50 [1, 7]: > 10000 nM | IC50 [2, 8]: < 100 nM
Compound: COc1cc2c(cc1Nc1ncc(Cl)c(Nc3ccccc3OC)n1)CCOC(=O)N2C [Example 1508, 2-[5-Chloro-4-(2-methoxy-phenylamino)-pyrimidin-2-ylamino]-3-methoxy-5-methyl-8,9-dihydro-5H-7-oxa-5-aza-benzocyclohepten-6-one]

IC50 [1, 9]: > 10000 nM | IC50 [2, 10]: < 100 nM
Compound: CNC(=O)CN1CCc2cc(Nc3ncc(Cl)c(NC4C5C=CC(C5)C4C(N)=O)n3)c(OC)cc2CC1 (stereo not drawn) [Example 1117, (2-exo,3-exo)-3-[5-Chloro-2-(8-methoxy-3-methylcarbamoylmethyl-2,3,4,5-tetrahydro-1H-benzo[d]azepin-7-ylamino)-pyrimidin-4-ylamino]-bicyclo[2.2.1]hept-5-ene-2-carboxylic acid amide]

IC50 [1, 5]: > 10000 nM | IC50 [2, 6]: < 100 nM
Compound: COc1cc2c(cc1Nc1ncc(Cl)c(Nc3ccccc3S(=O)(=O)N3CC[C@H](N(C)C)C3)n1)CCN(CC(=O)N(C)C)CC2 [Example 846, 2-(7-{5-Chloro-4-[2-((S)-3-dimethylamino-pyrrolidine-1-sulfonyl)-phenylamino]-pyrimidin-2-ylamino}-8-methoxy-1,2,4,5-tetrahydro-benzo[d]azepin-3-yl)-N,N-dimethyl-acetamide]
